Reference: the supplement of paper PMC7661543
± gives the standard deviation of the averaged measurements.

Legend:
Assay in all cases: relative cell number vs DMSO control (72 h) (% of DMSO); higher = less growth inhibition (more cells)
Details in all cases: sgRNA knockout: sgNT
BT-20 = test system: BT-20
Protocol: (§1)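 QMAP-Seq: a pool of 5 breast cancer cell lines (ZR-75-1, SKBR3, HCC-38, MDA-MB-231, BT-20), each carrying 12 doxycycline-inducible Cas9 sgRNA perturbations (11 knockouts plus non-targeting sgNT), was treated with compounds for 72 h at four 10-fold doses (10 nM-10 uM or 1 nM-1 uM range). Barcodes were amplified and sequenced, and cell number was interpolated from 293T spike-in standard curves. The result is expressed as % of the median of DMSO wells. Two biological replicates.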

HCC-38 = test system: HCC-38
Protocol: as §1

MDA-MB-231 = test system: MDA-MB-231
Protocol: as §1

SKBR3 = test system: SKBR3
Protocol: as §1

ZR-75-1 = test system: ZR-75-1
Protocol: as §1

Row | SMILES | relative cell number (BT-20; 10 nM) | relative cell number (BT-20; 100 nM) | relative cell number (BT-20; 1000 nM) | relative cell number (BT-20; 10000 nM) | relative cell number (HCC-38; 10 nM) | relative cell number (HCC-38; 100 nM) | relative cell number (HCC-38; 1000 nM) | relative cell number (HCC-38; 10000 nM) | relative cell number (MDA-MB-231; 10 nM) | relative cell number (MDA-MB-231; 100 nM) | relative cell number (MDA-MB-231; 1000 nM) | relative cell number (MDA-MB-231; 10000 nM) | relative cell number (SKBR3; 10 nM) | relative cell number (SKBR3; 100 nM) | relative cell number (SKBR3; 1000 nM) | relative cell number (SKBR3; 10000 nM) | relative cell number (ZR-75-1; 10 nM) | relative cell number (ZR-75-1; 100 nM) | relative cell number (ZR-75-1; 1000 nM) | relative cell number (ZR-75-1; 10000 nM)
1 | CC(C)(C#N)c1ccc(N2C(=O)OCc3cnc4ccc(-c5cnc6ccccc6c5)cc4c32)cc1 | 98.1 ± 10 | 102 ± 7 | 81.3 ± 1.9 | 50.8 ± 23 | 103 ± 28 | 97 ± 16 | 82.6 ± 15 | 33.2 ± 4.7 | 104 ± 25 | 94.3 ± 3.9 | 82.3 ± 23 | 49.7 ± 0.79 | 101 ± 19 | 100 ± 3 | 79.39 ± 0.72 | 49 ± 9.6 | 86.6 ± 16 | 116 ± 19 | 55.1 ± 1.7 | 38.4 ± 14
2 | CC(C)(C(=O)NCC(F)(F)C(F)(F)F)C(=O)N[C@@H]1C(=O)Nc2ccccc2-c2ccccc21 | 102 ± 5.3 | 109 ± 5.9 | 107 ± 33 | 121 ± 1.3 | 118 ± 3.9 | 99.1 ± 4.5 | 107 ± 3.9 | 109 ± 13 | 85.7 ± 7.5 | 122 ± 30 | 104 ± 16 | 97.7 ± 28 | 91 ± 1.3 | 133 ± 6.6 | 99 ± 36 | 109 ± 22 | 76.9 ± 11 | 130 ± 2.6 | 92.1 ± 1.7 | 103 ± 30
3 | CC(C)CC(=O)Nc1n[nH]c2c1CN(C(=O)C1CCN(C)CC1)C2(C)C | 114 ± 22 | 66.5 ± 1.9 | 43.3 ± 19 | 24.3 ± 1 | 112 ± 16 | 76.6 ± 10 | 42.4 ± 2 | 20.3 ± 0.83 | 112 ± 3.1 | 59.02 ± 0.15 | 18.8 ± 1.3 | 11 ± 4.8 | 108 ± 26 | 61.4 ± 27 | 30 ± 7.5 | 11.8 ± 1.6 | 70.6 ± 6.3 | 60.4 ± 13 | 31.4 ± 19 | 23.7 ± 10
4 | CC(C)OC(=O)C1=CN(C(=O)c2ccc(F)c(F)c2)CC(C)(C)c2c1[nH]c1ccccc21 | 98.9 ± 6.3 | 70 ± 5.8 | 105 ± 24 | 99.6 ± 25 | 94.8 ± 12 | 89.2 ± 8.8 | 95.2 ± 4.8 | 90.8 ± 6 | 86.2 ± 4.9 | 72.1 ± 4.9 | 83.4 ± 6.3 | 130 ± 24 | 81.3 ± 2.4 | 98.8 ± 33 | 77.9 ± 12 | 89.9 ± 24 | 119 ± 27 | 123 ± 59 | 101 ± 44 | 102 ± 58
5 | COc1cc2nc(N3CCCN(C)CC3)nc(NC3CCN(Cc4ccccc4)CC3)c2cc1OC | 82 ± 20 | 91.6 ± 8.2 | 84.4 ± 5.3 | 5.57 ± 2.9 | 111 ± 19 | 104 ± 19 | 85.8 ± 5.5 | 5.39 ± 3.1 | 123 ± 5.1 | 94.5 ± 18 | 80.2 ± 13 | 9.21 ± 8.3 | 98.3 ± 25 | 93.735 ± 0.032 | 75 ± 25 | 5.97 ± 3.4 | 102 ± 40 | 102 ± 45 | 109 ± 6.8 | 2.54 ± 0.52
6 | COc1ccc(-c2ccc3c(N4CCOCC4)nc(N4C[C@@H](C)O[C@@H](C)C4)nc3n2)cc1CO | 110 ± 9.1 | 119 ± 17 | 77.5 ± 5.5 | 57.6 ± 7.1 | 100 ± 8.5 | 115 ± 5.9 | 92.1 ± 13 | 48.9 ± 3.5 | 85.2 ± 1.6 | 166 ± 26 | 113 ± 5.1 | 57.7 ± 19 | 84.2 ± 39 | 110 ± 26 | 80.7 ± 2.5 | 51.5 ± 6.7 | 65.9 ± 21 | 116 ± 21 | 101 ± 4.9 | 36.1 ± 2.1
7 | CS(=O)(=O)c1cccc(CNc2nc(Nc3ccc4c(c3)CCC(=O)N4)ncc2C(F)(F)F)c1 | 118 ± 28 | 145 ± 3.4 | 105.9 ± 0.85 | 57 ± 3.3 | 96.9 ± 21 | 119 ± 18 | 86.8 ± 25 | 50.5 ± 4.3 | 122 ± 34 | 123.1 ± 0.038 | 103 ± 6.8 | 32.1 ± 9.6 | 85.7 ± 19 | 110.3 ± 0.38 | 87.3 ± 18 | 54.4 ± 9.9 | 98.8 ± 47 | 170 ± 92 | 80.9 ± 4.7 | 45.1 ± 2.2
8 | C[C@@H](Oc1cc(-n2cnc3ccc(CN4CCN(C)CC4)cc32)sc1C(N)=O)c1ccccc1C(F)(F)F | 48.1 ± 11 | 26.1 ± 17 | 31.8 ± 0.68 | 23.3 ± 2.4 | 23.8 ± 3.1 | 16.7 ± 4.5 | 17.3 ± 0.54 | 17.6 ± 4.5 | 40.66 ± 0.27 | 19.5 ± 2.2 | 12.5 ± 0.32 | 8.66 ± 5.4 | 13.6 ± 4.1 | 13.5 ± 1.8 | 13.4 ± 4.3 | 23.5 ± 4.7 | 112 ± 14 | 22.1 ± 8.8 | 27.7 ± 3.9 | 29.7 ± 12
9 | C[C@@H]1CN(CC(=O)Nc2ccc3c(c2)Cc2cccc(-c4cc(=O)cc(N5CCOCC5)o4)c2S3)C[C@H](C)O1 | 73.7 ± 24 | 119 ± 3.5 | 108 ± 8.4 | 62.4 ± 3.5 | 89.9 ± 3.7 | 110 ± 4.4 | 76.9 ± 3.3 | 64.3 ± 9.2 | 111 ± 4.9 | 85.1 ± 5.2 | 95.9 ± 20 | 59.4 ± 6.4 | 86.5 ± 26 | 95.9 ± 33 | 87.7 ± 36 | 33.6 ± 4.6 | 95.6 ± 6 | 92.7 ± 26 | 80.8 ± 9.4 | 38.7 ± 11
10 | C[C@@]1(C(=O)Nc2ccc(F)nc2)CCCN1c1nc(Nc2cc(C3CC3)n[nH]2)c2cccn2n1 | 77.5 ± 8.7 | 89.5 ± 17 | 90 ± 11 | 67.5 ± 16 | 87.8 ± 4.9 | 82.5 ± 10 | 81.5 ± 2.7 | 45.49 ± 0.25 | 126 ± 33 | 96.4 ± 18 | 70.4 ± 5.7 | 43.2 ± 7.3 | 72 ± 24 | 89.9 ± 15 | 74.8 ± 14 | 66 ± 6.5 | 92.7 ± 27 | 73.9 ± 16 | 36 ± 18 | 30.8 ± 12
11 | Cc1[nH]c(/C=C2\C(=O)Nc3ccc(S(=O)(=O)N(C)c4cccc(Cl)c4)cc32)c(C)c1C(=O)N1CCN(C)CC1 | 89.8 ± 4.6 | 95 ± 19 | 74.8 ± 2.8 | 60.9 ± 35 | 109 ± 14 | 92.58 ± 0.79 | 90.6 ± 7.8 | 55.2 ± 1.4 | 134 ± 62 | 94.8 ± 19 | 95.3 ± 23 | 42.5 ± 11 | 90.1 ± 7.7 | 102 ± 8.9 | 87.4 ± 16 | 59.6 ± 16 | 95.1 ± 14 | 97.4 ± 3.6 | 54 ± 27 | 37.5 ± 6
12 | Cc1c(Cn2c(C)nc3c(C(=O)O)cc(N4CCOCC4)cc32)cccc1C(F)(F)F | 100 ± 7.3 | 117 ± 23 | 87 ± 10 | 82.1 ± 1.1 | 115 ± 17 | 85.5 ± 2.4 | 108 ± 19 | 102 ± 10 | 105 ± 4.5 | 123 ± 22 | 93.9 ± 27 | 112 ± 23 | 137 ± 8 | 123 ± 22 | 98.4 ± 25 | 99.1 ± 8.4 | 126 ± 2.5 | 98.6 ± 13 | 72.1 ± 7 | 108 ± 53
